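How tested: cells in 96-well plates exposed to compound for 48 hours at five concentrations. GI50 marks 50% less growth. TGI: total growth inhibition.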

Test systems include OVCAR-3 ovarian; MALME-3M melanoma; OVCAR-4 ovarian; NCI-H522 lung; SF-539 CNS; NCI-H23 lung; SN12C renal; T-47D breast; CCRF-CEM leukemia; IGROV1 ovarian.
Holding throughout (assay): DTP human tumour cell line panel, 48 h

`CC(=O)N(C)c1ccc(Nc2ccnc3ccc4nn(C)nc4c23)cc1`: the TGI with OVCAR-3 ovarian was 50 µM; in the assay on MALME-3M melanoma, 39.6 µM; in the assay with OVCAR-4 ovarian it was greater than 100 µM; in the assay on NCI-H522 lung it was 41.2 µM; in the assay on SF-539 CNS, 46.4 µM; in the assay on NCI-H23 lung it was 82.1 µM. Also, the TGI was greater than 100 µM in the assay on SN12C renal, 76.1 µM with T-47D breast and 42 µM in the assay on CCRF-CEM leukemia.

As to `Cc1cnc2[nH]c(-c3cccc(F)c3)cc(=O)c2c1`, the TGI was 0.0373 µM in the assay with OVCAR-3 ovarian; greater than 100 µM with MALME-3M melanoma; greater than 100 µM with OVCAR-4 ovarian; 0.108 µM with NCI-H522 lung; 0.263 µM with SF-539 CNS; 2.03 µM with NCI-H23 lung. The TGI with SN12C renal, with IGROV1 ovarian and with T-47D breast was greater than 100 µM in each case.

For `CCOC(=O)Cn1nnc2cc(Nc3c(C)[n+]([O-])c4cc(F)c(OCC)cc4[n+]3[O-])ccc21`, the TGI in the assay with OVCAR-3 ovarian, in the assay on OVCAR-4 ovarian, in the assay with NCI-H522 lung, with SF-539 CNS, in the assay with NCI-H23 lung and in the assay on IGROV1 ovarian was greater than 100 µM in each case. The TGI with T-47D breast and in the assay with CCRF-CEM leukemia was greater than 100 µM in each case.

Turning to `N#C/C(=C\c1cccc(Br)c1)c1nc2ccccc2c(=O)[nH]1`, the TGI in the assay on MALME-3M melanoma, in the assay on OVCAR-4 ovarian, with NCI-H522 lung, with SF-539 CNS, in the assay with SN12C renal and in the assay with IGROV1 ovarian was greater than 100 µM throughout. Further, the TGI in the assay with T-47D breast and in the assay on CCRF-CEM leukemia was greater than 100 µM throughout.

On to `Cc1nnc2n1-c1ccccc1N(Cc1ccccc1)CC2`, for which the TGI in the assay with OVCAR-3 ovarian, in the assay on MALME-3M melanoma, with OVCAR-4 ovarian, in the assay with SF-539 CNS, in the assay on NCI-H23 lung and in the assay with SN12C renal was greater than 100 µM throughout. Further, the TGI with IGROV1 ovarian is greater than 100 µM; in the assay on T-47D breast, greater than 100 µM; with CCRF-CEM leukemia, 90.3 µM.

For the molecule `CCCCCCCCCCCCOCCOCCOCCOCCOCCOCC(=O)NC(Cc1ccccc1)C(=O)Oc1ccc([N+](=O)[O-])cc1` (stereo unspecified), the TGI in the assay with OVCAR-3 ovarian was 51.9 µM; in the assay on MALME-3M melanoma it was greater than 100 µM; with OVCAR-4 ovarian, greater than 100 µM; with NCI-H522 lung it was greater than 100 µM; in the assay on SF-539 CNS, greater than 100 µM; in the assay with NCI-H23 lung it was greater than 100 µM. In addition, the TGI in the assay on IGROV1 ovarian, in the assay with T-47D breast and in the assay with CCRF-CEM leukemia was greater than 100 µM each time.

Turning to `CN(C)CCCNc1cc(O)c2c(c1O)C(=O)c1ccccc1C2=O`, the TGI amounted to 23.5 µM in the assay on OVCAR-3 ovarian; 50.2 µM with MALME-3M melanoma; 25.4 µM with OVCAR-4 ovarian; 40.7 µM with NCI-H522 lung; 26.7 µM in the assay with SF-539 CNS; 27.9 µM with NCI-H23 lung. Further, the TGI in the assay on SN12C renal was found to be 16.5 µM; with IGROV1 ovarian, 24.6 µM; in the assay with T-47D breast, 36.5 µM.

For `C=C1C[C@@H]2CC[C@@]34C[C@H]5O[C@H]6[C@@H](O3)[C@H]3O[C@H](CC[C@@H]3O[C@H]6[C@H]5O4)CC(=O)C[C@@H]3[C@@H](OC)[C@@H](C[C@H](O)CN)O[C@H]3C[C@H]3O[C@@H](CC[C@@H]1O2)C[C@@H](C)C3=C`, the GI50 in the assay on OVCAR-3 ovarian was 0.0002 µM. Moreover, the TGI is 0.000836 µM with OVCAR-3 ovarian; greater than 1 µM in the assay with MALME-3M melanoma; greater than 1 µM in the assay with OVCAR-4 ovarian; 0.0412 µM in the assay with NCI-H522 lung; 0.00215 µM in the assay with SF-539 CNS; 0.173 µM in the assay with NCI-H23 lung. The TGI in the assay on SN12C renal was greater than 1 µM; in the assay on IGROV1 ovarian, greater than 0.253 µM; in the assay on T-47D breast it was greater than 1 µM.

For the molecule `CCN(CCCCCCCCCCN1CC(=O)N(CCCCCCCCCCN(CC)Cc2ccccc2OC)CC1=O)Cc1ccccc1OC`, the GI50 with OVCAR-3 ovarian was 1.18 µM; with MALME-3M melanoma, 1.64 µM; in the assay on OVCAR-4 ovarian, 1.77 µM; in the assay on SF-539 CNS it was 1.58 µM; in the assay with NCI-H23 lung it was 1.81 µM; in the assay with SN12C renal, 1.51 µM. For the same molecule, the GI50 with IGROV1 ovarian was 1.57 µM; with T-47D breast, 1.99 µM; in the assay on CCRF-CEM leukemia, 2.11 µM. Moreover, the TGI in the assay on OVCAR-3 ovarian was 2.48 µM; with MALME-3M melanoma, 3.47 µM; in the assay with OVCAR-4 ovarian, 6.59 µM; in the assay with SF-539 CNS, 3.33 µM; with NCI-H23 lung, 4.52 µM; in the assay on SN12C renal, 3.57 µM. For the same molecule, the figures for the TGI with IGROV1 ovarian, with T-47D breast and with CCRF-CEM leukemia were 3.62 µM, 6.33 µM and 10.1 µM, respectively.

Turning to `Nc1nncc2[nH]cnc12`, the TGI in the assay with OVCAR-3 ovarian, with OVCAR-4 ovarian, in the assay with NCI-H522 lung, in the assay on SF-539 CNS, in the assay on SN12C renal and with IGROV1 ovarian was greater than 100 µM each time. Moreover, the TGI with T-47D breast was greater than 100 µM; in the assay on CCRF-CEM leukemia, 20.7 µM.

Turning to `COc1cccc(N2C(=O)CS(=O)(=O)C2c2cccc(Oc3ccccc3)c2)c1` (stereo unspecified), the TGI in the assay with OVCAR-3 ovarian is greater than 100 µM; in the assay on MALME-3M melanoma it was 69.8 µM; with OVCAR-4 ovarian it was greater than 100 µM; with NCI-H522 lung, 37.6 µM; in the assay with SF-539 CNS, 38.4 µM; in the assay with NCI-H23 lung it was greater than 100 µM. The TGI in the assay on SN12C renal is 38.2 µM; in the assay with T-47D breast, 81.1 µM; in the assay with CCRF-CEM leukemia it was greater than 100 µM.

For the molecule `Cn1c2c(c3ccccc31)CCN1C(=O)C34CCCC3CC21S4` (stereo unspecified), the TGI in the assay on OVCAR-3 ovarian, in the assay with MALME-3M melanoma, in the assay on OVCAR-4 ovarian, with NCI-H522 lung, with SF-539 CNS and in the assay on NCI-H23 lung was greater than 100 µM in each case. Also, the TGI in the assay on SN12C renal, in the assay on IGROV1 ovarian and with T-47D breast was greater than 100 µM throughout.

For the molecule `CC(C)=CCC12Cc3ccc(O)cc3C(C(C)CN1)C2C` (stereo unspecified), the TGI in the assay on MALME-3M melanoma, in the assay with OVCAR-4 ovarian, in the assay with SF-539 CNS, with NCI-H23 lung, in the assay with SN12C renal and in the assay on IGROV1 ovarian was greater than 100 µM throughout. Moreover, the TGI in the assay with T-47D breast and in the assay with CCRF-CEM leukemia was greater than 100 µM in each case.

In the case of `Cc1cn(CCCCCOC(=O)NC(CCCNC(N)=O)C(=O)O)c(=O)[nH]c1=O` (stereo unspecified), the total growth inhibition concentration (TGI) in the assay with OVCAR-3 ovarian, in the assay on OVCAR-4 ovarian, in the assay with SF-539 CNS, in the assay with NCI-H23 lung, with SN12C renal and in the assay on IGROV1 ovarian was greater than 100 µM in each case. For the same molecule, the TGI in the assay on T-47D breast and in the assay on CCRF-CEM leukemia was greater than 100 µM throughout.

As a reminder, the TGI is the concentration giving total growth inhibition. Low values mean greater sensitivity of the cells, high ones lower sensitivity of the cells. In general, GI50 refers to the concentration giving 50% growth inhibition.

For the origin of these results see PubChem BioAssay (NCI).
